Source: patent US9597369B2, “Inhibitors of atypical protein kinase C and their use in treating hedgehog pathway-dependent cancers” (The Board of Trustees of the Leland Stanford Junior …, priority 2011, dated 2017)
pIC50: −log10 of the molar value. Each block holds one molecule with its values, some of them ahead of it. Peptide text beside a SMILES is read from it. * marks the point of attachment. Myristoyl = CCCCCCCCCCCCCC(=O)*

Assays:
allografted BCC tumors = conditions: mouse, in vivo
Description: All mouse studies were approved by and conformed to the policies and regulations of the Institutional Animal Care and Use Committees at Stanford University and the Children's Hospital Oakland Research Institute. Ptch1+/−, K14CreER2, p53flox/flox mice were used to develop BCC tumors. Tumors were allografted as previously described (Wang, G. Y. et al. Establishment of Murine Basal Cell Carcinoma Allografts: A Potential Model for Preclinical Drug Testing and for Molecular Analysis. Journal of Investigative Dermatology (2011).doi:10.1038/jid.2011.204). Nine tumors from three mice were treated topically twice daily with 0.8 mg/kg PSI dissolved in DMSO for at least 32 days. Ten tumors from three mice were treated with DMSO twice daily as a control. Mice were euthanized and tumors harvested depending on tumor size that exceeded our animal care guidelines. We measured the change in tumor size with calipers every three to four days. Pairwise comparisons between DMSO and PSI treatment were done using a two-sided unpaired t test with GraphPad Prism software.

non-tumorigenic cells = assay: Proliferation of non-tumorigenic cells; type: cell-based, mouse and human; conditions: mouse dermal fibroblasts, mouse keratinocytes, human retinal pigment epithelial cells, FIG. 7
Method: (§1) Primary mouse dermal cells were isolated as previously described (Bershteyn, M., Atwood, S. X., Woo, W.-M., Li, M. & Oro, A. E. MIM and cortactin antagonism regulates ciliogenesis and hedgehog signaling. Dev. Cell 19, 270-283 (2010)). Dermal cells were grown in Amniomax media containing supplement and antibiotics (Invitrogen). ASZ001 cells were grown in 154CF media containing 2% chelated FBS, HKGS supplement, and antibiotics (Invitrogen). Keratinocytes (HPA Culture Collections) were grown in CnT-07 media containing supplement and 0.07 mM CaCl2 (CelINTec). Cells were sterum-starved between 24-48 hrs to induce ciliogenesis. MTT cell proliferation assay was performed using manufacturer's protocol from Invitrogen.

ASZ001 cells [1] = type: cell-based, mouse; conditions: 48 h
Method: as §1
(§2) Subconfluent ASZ001 cells were serum-starved and inhibitors added for 48 hrs prior to MTT assay and 24 hrs prior to visualize cilia and assay Gli target gene induction. Stability assays performed with ASZ001 preincubated with PSI for one hour before 20 ug/ml cyclohexamide addition at various time points.

Hh signaling = Hh signaling (gli1 mRNA, Gli target gene induction) in BCC cells; type: cell-based, mouse
Method: as §2
(§3) Aligned 36 bp raw reads with Bowtie using the NCBI37/mm9 reference genome. Differential expression analysis was performed on the 3′ exon with the Cufflinks suite using mouse RefSeq gene predictions as a reference transcriptome. Annotated coding transcripts were filtered for significant expression by a RPKM of 25 in at least one sample set. […] Transcripts were validated using Brilliant II SYBR Green qRT-PCR Master Mix Kit (Agilent Technologies) with primers listed in the following table. Two-tail p-value between our gene sets and other gene sets calculated using Fisher's Exact Test.

ASZ001 cells [2] = assay: 3' end RNA sequencing of inhibitor-treated BCC cells; type: cell-based, mouse; conditions: inhibitor 24 hrs, FIG. 3a
Method: as §3

- pIC50 (ASZ001 cells [1]): 5.30
SMILES: CCCCCCCCCCCCCC(=O)N[C@@H](CO)C(=O)N[C@H](C(=O)N[C@@H](Cc1ccc(O)cc1)C(=O)N[C@@H](CCCNC(=N)N)C(=O)N[C@@H](CCCNC(=N)N)C(=O)NCC(=O)N[C@@H](C)C(=O)N[C@@H](CCCNC(=N)N)C(=O)N[C@@H](CCCNC(=N)N)C(=O)N[C@@H](Cc1c[nH]c2ccccc12)C(=O)N[C@@H](CCCNC(=N)N)C(=O)N[C@@H](CCCCN)C(=O)N[C@@H](CC(C)C)C(=O)N[C@@H](Cc1ccc(O)cc1)C(=O)O)[C@@H](C)CC [PSI] (Myristoyl-SIYRRGARRWRKLY-OH)
- adverse effects on normal skin (allografted BCC tumors): no adverse effects to PSI treatment except a mild hair phenotype
- proliferation in non-tumorigenic cells (non-tumorigenic cells): unaffected

SMILES: CNC1CCC(N(Cc2cccc(-c3ccncc3)c2)C(=O)c2sc3ccccc3c2Cl)CC1 (centres unmarked) [SAG]
- gli1 transcription (Hh signaling; BCC cells, agonist alone, FIG. 3d): activates gli1 transcription

SMILES: Cc1nn(-c2ccccc2)c(C)c1/C=N/N1CCN(Cc2ccccc2)CC1 [Sant-1]
- cdc42 transcript (Hh signaling; mouse BCC cells, FIG. 2i): repressed
- pard6a transcript (Hh signaling; mouse BCC cells, FIG. 2i): elevated
- transcripts changed two-fold or greater compared to control (ASZ001 cells [2]): 5700 transcripts

SMILES: CC1=C2C[C@H]3[C@@H](CC=C4C[C@@H](O)CC[C@@]43C)[C@@H]2CC[C@]12O[C@@H]1C[C@H](C)CN[C@H]1[C@H]2C [cyclopamine]
- gli1 and apkciota transcript (Hh signaling; BCC cells, FIG. 2g): specifically suppressed
